The subject of experiment [1] is Mycobacterium tuberculosis. Kind of experiment: Antitubercular activity against Mycobacterium tuberculosis H37Rv after 60 days. In kind it is functional.
For experiment [2], the system named is Vero. In words: Cytotoxicity against Chlorocebus aethiops (African green monkey) Vero cells after 72 hr. The experiment is classed as cell-based. As to conditions: Chlorocebus sabaeus.

For 16 molecules, MIC50, MIC90 and IC50 results are on record in ChEMBL document CHEMBL3045062, “Potent in vitro and in vivo antitubercular activity of certain newly synthesized indophenazine 1,3,5-trisubstituted pyrazoline derivatives bearing benzofuran” (Med Chem Res, 2011).

Values after ≈ are worked out from the molar mass of the structure shown.

For orientation: MIC50 means the lowest concentration that inhibits either 50% of growth or 50% of the strains tested, depending on the study. The term MIC90 denotes an inhibitory concentration at the 90% level, which refers to growth in some studies and to a panel of isolates in others. Higher therefore signals weaker potency. The term IC50 denotes the point on the concentration scale where inhibition reaches its midpoint. A high value points to weaker potency. In experiment [1], `CN(C)c1ccc(C2CC(c3cc4cc(O)ccc4o3)=NN2C(=O)Cn2c3ccccc3c3nc4ccccc4nc32)cc1` (configuration not stated) registered an MIC50 of 5.56 mg/L (≈ 9.58 µM) and an MIC90 of 9.21 mg/L (≈ 15.9 µM). In experiment [2], the IC50 was above 216 µM.
For `O=C(Cn1c2ccccc2c2nc3ccccc3nc21)N1N=C(c2cc3cc(O)ccc3o2)CC1c1ccccc1[N+](=O)[O-]` (configuration not stated), in experiment [1], the MIC50 came to 0.16 mg/L (≈ 0.275 µM) and the MIC90 amounted to 0.42 mg/L (≈ 0.721 µM). The IC50 in experiment [2] is above 144 µM.
On to `O=C(Cn1c2ccccc2c2nc3ccccc3nc21)N1N=C(c2cc3cc(O)ccc3o2)CC1c1ccccc1Cl` (configuration not stated), for which, in experiment [1], the MIC50 was determined as 1.75 mg/L (≈ 3.06 µM) and the MIC90 was found to be 2.56 mg/L (≈ 4.48 µM). Also, in experiment [2], the IC50 was above 196 µM.
In experiment [1], `O=C(Cn1c2ccccc2c2nc3ccccc3nc21)N1N=C(c2cc3cc(O)ccc3o2)CC1/C=C/c1ccccc1` (configuration not stated) came in with an MIC50 of 0.98 mg/L (≈ 1.74 µM) and an MIC90 of 3.67 mg/L (≈ 6.51 µM). The same molecule displayed an IC50 in experiment [2] above 206 µM.
Molecule `O=C(Cn1c2ccccc2c2nc3ccccc3nc21)N1N=C(c2cc3cc(O)ccc3o2)CC1c1ccc(O)cc1` (configuration not stated) registered an IC50 in experiment [2] above 245 µM.
In experiment [1], `O=C(Cn1c2ccccc2c2nc3ccccc3nc21)N1N=C(c2cc3cc(O)ccc3o2)CC1c1cccc([N+](=O)[O-])c1` (configuration not stated) gave an MIC50 of 0.62 mg/L (≈ 1.06 µM) and an MIC90 of 1.24 mg/L (≈ 2.13 µM). Further, the IC50 in experiment [2] is above 180 µM.
As to `CC(=O)c1ccccc1C1CC(c2cc3cc(O)ccc3o2)=NN1C(=O)Cn1c2ccccc2c2nc3ccccc3nc21` (configuration not stated), in experiment [2], the IC50 was above 220 µM.
Consider `CO[C@H]1/C=C/O[C@@]2(C)Oc3c(C)c(O)c4c(O)c(c(/C=N/N5CCN(C)CC5)c(O)c4c3C2=O)NC(=O)/C(C)=C\C=C\[C@H](C)[C@H](O)[C@@H](C)[C@@H](O)[C@@H](C)[C@H](OC(C)=O)[C@@H]1C` [RIFAMPIN], for which, in experiment [1], the MIC50 is 0.5 mg/L (≈ 0.608 µM) and the MIC90 came out at 2 mg/L (≈ 2.43 µM). Moreover, the IC50 in experiment [2] is above 77.4 µM.
Regarding `O=C(Cn1c2ccccc2c2nc3ccccc3nc21)N1N=C(c2cc3cc(O)ccc3o2)CC1c1ccccc1` (configuration not stated), the IC50 in experiment [2] was above 197 µM.
In experiment [1], `O=C(Cn1c2ccccc2c2nc3ccccc3nc21)N1N=C(c2cc3cc(O)ccc3o2)CC1c1ccc(Cl)cc1` (configuration not stated) came in with an MIC50 of 2.45 mg/L (≈ 4.28 µM) and an MIC90 of 4.2 mg/L (≈ 7.34 µM). Besides, the IC50 in experiment [2] is above 205 µM.
On the same counts, the results for `COc1c(N2CCNC(C)C2)c(F)cc2c(=O)c(C(=O)O)cn(C3CC3)c12` (configuration not stated) [GATIFLOXACIN] are 0.12 mg/L (≈ 0.32 µM), 0.5 mg/L (≈ 1.33 µM) and above 160 µM.
In experiment [1], `COc1ccc(C2CC(c3cc4cc(O)ccc4o3)=NN2C(=O)Cn2c3ccccc3c3nc4ccccc4nc32)cc1` (configuration not stated) showed an MIC50 of 12.1 mg/L (≈ 21.3 µM) and an MIC90 of 14.3 mg/L (≈ 25.2 µM). The IC50 in experiment [2] is above 226 µM.
In experiment [1], `O=C(Cn1c2ccccc2c2nc3ccccc3nc21)N1N=C(c2cc3cc(O)ccc3o2)CC1c1ccccc1O` (configuration not stated) had an MIC50 of 9.81 mg/L (≈ 17.7 µM) and an MIC90 of 10.8 mg/L (≈ 19.6 µM). Also, the IC50 in experiment [2] was above 227 µM.
As to `O=C(Cn1c2ccccc2c2nc3ccccc3nc21)N1N=C(c2cc3cc(O)ccc3o2)CC1c1ccco1` (configuration not stated), in experiment [1], the MIC50 stood at 1.1 mg/L (≈ 2.09 µM) and the MIC90 turned out to be 3.12 mg/L (≈ 5.91 µM). Moreover, the IC50 in experiment [2] is above 198 µM.
On the same counts, the results for `COc1ccc(C2CC(c3cc4cc(O)ccc4o3)=NN2C(=O)Cn2c3ccccc3c3nc4ccccc4nc32)c(O)c1` (configuration not stated) are 4.56 mg/L (≈ 7.81 µM), 8.32 mg/L (≈ 14.3 µM) and above 206 µM.
The matching figures for `COc1ccccc1C1CC(c2cc3cc(O)ccc3o2)=NN1C(=O)Cn1c2ccccc2c2nc3ccccc3nc21` (configuration not stated): 11.8 mg/L (≈ 20.8 µM), 14.2 mg/L (≈ 25 µM) and above 226 µM.
